Laboratory results reported in publication PMC11847258, “Phase I trial of the combination of the pan-ErbB inhibitor neratinib and mTOR inhibitor everolimus in advanced cancer patients with ErbB family gene alterations” (ESMO Open, 2025).
Like-named read-outs stand apart in the source and are kept apart here.

Key:
[1] = Plasma pharmacokinetics on cycle 1, day 15 (LC/MS, noncompartmental analysis); type: in vivo, human; conditions: for AUC(0-t): read-out: AUC0-24; for clearance: read-out: CLss (converted); for concentration at 24 h: read-out: Ctau or C24
Description: Pharmacokinetic (PK) analysis was conducted on cycle 1, day 15 for both everolimus and neratinib with blood samples collected at pre-dose, 1, 3, 4, 6, 8, and 24 hours post-dose. Following good clinical and laboratory practices, blood was collected into K2-EDTA vacutainers, gently inverted and mixed, then centrifuged at 3000 rpm (1500 g) for 10 min at 4°C. The resultant plasma was placed into cryovials and frozen at −70°C until analysis.

[2] = cited from earlier work
[3] = cited from earlier work; remark: listed apart in the source
[4] = Dose Level 2: neratinib 200mg/day + everolimus 5mg/day, n=3, Cycle 1, Day 15, mean (range)
[5] = Dose Level 4: neratinib 240mg/day + everolimus 7.5mg/day, n=5, Cycle 1, Day 15, mean (range)
[6] = human, plasma, oral, Dose Level 2: neratinib 200mg/day + everolimus 5mg/day, n=3, Cycle 1, Day 15, mean (range)
[7] = human, plasma, oral, Dose Level 2: neratinib 200mg/day + everolimus 5mg/day, n=3, Cycle 1, Day 15, mean (range), read-out: Tmax
[8] = human, plasma, oral, Dose Level 4: neratinib 240mg/day + everolimus 7.5mg/day, n=5, Cycle 1, Day 15, mean (range)
[9] = monotherapy 240mg, N=3, ref Wong et.al.
[10] = monotherapy 240mg, N=3, ref Wong et.al., listed as neratinib
[11] = monotherapy 5mg, N=4, ref O’Donnell et.al.
[12] = monotherapy 10mg, N=33, ref O’Donnell et.al.
[13] = monotherapy 10mg, N=33, ref O’Donnell et.al., listed as everolimus

SMILES: CCOc1cc2ncc(C#N)c(Nc3ccc(OCc4ccccn4)c(Cl)c3)c2cc1NC(=O)/C=C/CN(C)C [Neratinib, neratinib]
- AR (accumulation ratio) [1, 4]: 1.41(1.2-1.9)
- AUC0-∞ [1, 4]: 910 (195-2125) ng*h/mL
- Ctau or C24 [1, 4]: 13.6 (2.6-31.8) ng/mL
- AR (accumulation ratio) [1, 5]: 2.29 (1.4-3.8)
- Ctau or C24 [1, 5]: 44 (14.5-125) ng/mL
- Cmax [1, 6]: 35.8 ng/mL
- half-life [1, 6]: 13.1 h
- AUC(0-t) [1, 6]: 400 ng·h/mL
- clearance [1, 6]: 9970 mL/min
- concentration at 24 h [1, 6]: 13.6 ng/mL
- Tmax [1, 7]: 4.8 h
- AUC(0-inf) [1, 8]: 3930 ng·h/mL
- Cmax [1, 8]: 83.4 ng/mL
- half-life [1, 8]: 28.6 h
- AUC(0-t) [1, 8]: 1170 ng·h/mL
- clearance [1, 8]: 4820 mL/min
- concentration at 24 h [1, 8]: 44 ng/mL
- Tmax ([1]; human, plasma, oral, Dose Level 4: neratinib 240mg/day + everolimus 7.5mg/day, n=5, Cycle 1, Day 15, mean (range), read-out: Tmax): 4.2 h
- TRAE all grades: Anorexia [2, 9]: 2 (67)
- TRAE all grades: Diarrhea [2, 9]: 3 (100)
- TRAE all grades: Fatigue [2, 9]: 2 (67)
- TRAE all grades: Nausea [2, 9]: 2 (67)
- TRAE all grades: Rash [2, 9]: 1 (33)
- TRAE all grades: Vomiting [2, 9]: 1 (33)
- TRAE all grades: Anorexia [2, 10]: 67
- TRAE all grades: Diarrhea [2, 10]: 100
- TRAE all grades: Fatigue [2, 10]: 67
- TRAE all grades: Nausea [2, 10]: 67
- MTD ([2]; monotherapy): 320 mg

SMILES: CO[C@H]1C[C@@H]2CC[C@@H](C)[C@@](O)(O2)C(=O)C(=O)N2CCCC[C@H]2C(=O)O[C@H]([C@H](C)C[C@@H]2CC[C@@H](OCCO)[C@H](OC)C2)CC(=O)[C@H](C)/C=C(\C)[C@@H](O)[C@@H](OC)C(=O)[C@H](C)C[C@H](C)/C=C/C=C/C=C/1C [Everolimus, everolimus]
- AR (accumulation ratio) [1, 4]: 1.2 (1.1-1.3)
- Ctau or C24 [1, 4]: 0.42 (0-1.1) ng/mL
- AR (accumulation ratio) [1, 5]: 1.7 (1-2.6)
- Ctau or C24 [1, 5]: 2.8 (0-9.9) ng/mL
- Tmax [1, 5]: 4.8 h
- AUC(0-inf) [1, 6]: 53.8 ng·h/mL
- Cmax [1, 6]: 3.58 ng/mL
- half-life [1, 6]: 8.2 h
- AUC(0-t) [1, 6]: 24.3 ng·h/mL
- clearance [1, 6]: 3370 mL/min
- concentration at 24 h [1, 6]: 0.42 ng/mL
- Tmax [1, 7]: 4.33 h
- AUC(0-inf) [1, 8]: 253 ng·h/mL
- Cmax [1, 8]: 8.5 ng/mL
- half-life [1, 8]: 16.8 h
- AUC(0-t) [1, 8]: 116 ng·h/mL
- clearance [1, 8]: 2300 mL/min
- concentration at 24 h [1, 8]: 2.8 ng/mL
- Tmax ([1]; human, plasma, oral, both groups (DL 2 and DL 4), with neratinib, read-out: mean Tmax): > 4 h
- TRAE all grades: Anemia [3, 11]: 1 (25)
- TRAE all grades: Anorexia [3, 11]: 1 (25)
- TRAE all grades: Constipation [3, 11]: 1 (25)
- TRAE all grades: Mucositis [3, 11]: 2 (50)
- TRAE all grades: Nausea [3, 11]: 1 (25)
- TRAE all grades: Pruritus [3, 11]: 1 (25)
- TRAE all grades: Rash [3, 11]: 2 (50)
- Grade ≥ 3 treatment-related: Anorexia [3, 12]: 2 (6.1)
- Grade ≥ 3 treatment-related: Dyspnea [3, 12]: 1 (3)
- Grade ≥ 3 treatment-related: Epistaxis [3, 12]: 1 (3)
- Grade ≥ 3 treatment-related: GI hemorrhage [3, 12]: 1 (3)
- Grade ≥ 3 treatment-related: Hyperglycemia [3, 12]: 2 (6.1)
- Grade ≥ 3 treatment-related: Hypertriglyceridemia [3, 12]: 1 (3)
- Grade ≥ 3 treatment-related: Mucositis [3, 12]: 2 (6.1)
- Grade ≥ 3 treatment-related: Nausea [3, 12]: 1 (3)
- Grade ≥ 3 treatment-related: Pneumonia [3, 12]: 1 (3)
- Grade ≥ 3 treatment-related: Rash [3, 12]: 1 (3)
- Grade ≥ 3 treatment-related: Thrombocytopenia [3, 12]: 2 (6.1)
- TRAE all grades: Anorexia [3, 12]: 11 (33.3)
- TRAE all grades: Constipation [3, 12]: 7 (21.2)
- TRAE all grades: Diarrhea [3, 12]: 7 (21.2)
- TRAE all grades: Fatigue [3, 12]: 12 (36.4)
- TRAE all grades: Headache [3, 12]: 7 (21.2)
- TRAE all grades: Mucositis [3, 12]: 17 (51.5)
- TRAE all grades: Nausea [3, 12]: 14 (42.4)
- TRAE all grades: Rash [3, 12]: 20 (60.6)
- TRAE all grades: Vomiting [3, 12]: 5 (15.2)
- TRAE all grades: Mucositis [3, 13]: 51.5
- TRAE all grades: Nausea [3, 13]: 42.4
- TRAE all grades: Rash [3, 13]: 60.6
- Tmax ([3]; single agent): 1 to 2 h
- dose with acceptable tolerability suggested by PK analysis (MTD undetermined) ([3]; single agent): 10 mg/day
